# Test results from patent US12527835B2, “Brevican-binding peptides for brain tumor imaging” (The Brigham and Women's Hospital, Inc., priority 2018, dated 2026).
# Where a SMILES comes first, the peptide text is derived from it. [ ]: non-standard residue; d: D form.
# How the values were obtained:
# [1] = molecular target: T1, recombinant BΔg protein (deglycosylated brevican) (Homo sapiens, UniProt Q96GW7); assay: Octet steady state binding affinity to recombinant BΔg; conditions: steady state analysis, Octet RED, peptide up to 10 μM; read-out: KD (dissociation constant) to BΔg protein
# T1 construct: purchased R&D Systems 4009-BC-050
# T1 sequence (Q96GW7 23-911): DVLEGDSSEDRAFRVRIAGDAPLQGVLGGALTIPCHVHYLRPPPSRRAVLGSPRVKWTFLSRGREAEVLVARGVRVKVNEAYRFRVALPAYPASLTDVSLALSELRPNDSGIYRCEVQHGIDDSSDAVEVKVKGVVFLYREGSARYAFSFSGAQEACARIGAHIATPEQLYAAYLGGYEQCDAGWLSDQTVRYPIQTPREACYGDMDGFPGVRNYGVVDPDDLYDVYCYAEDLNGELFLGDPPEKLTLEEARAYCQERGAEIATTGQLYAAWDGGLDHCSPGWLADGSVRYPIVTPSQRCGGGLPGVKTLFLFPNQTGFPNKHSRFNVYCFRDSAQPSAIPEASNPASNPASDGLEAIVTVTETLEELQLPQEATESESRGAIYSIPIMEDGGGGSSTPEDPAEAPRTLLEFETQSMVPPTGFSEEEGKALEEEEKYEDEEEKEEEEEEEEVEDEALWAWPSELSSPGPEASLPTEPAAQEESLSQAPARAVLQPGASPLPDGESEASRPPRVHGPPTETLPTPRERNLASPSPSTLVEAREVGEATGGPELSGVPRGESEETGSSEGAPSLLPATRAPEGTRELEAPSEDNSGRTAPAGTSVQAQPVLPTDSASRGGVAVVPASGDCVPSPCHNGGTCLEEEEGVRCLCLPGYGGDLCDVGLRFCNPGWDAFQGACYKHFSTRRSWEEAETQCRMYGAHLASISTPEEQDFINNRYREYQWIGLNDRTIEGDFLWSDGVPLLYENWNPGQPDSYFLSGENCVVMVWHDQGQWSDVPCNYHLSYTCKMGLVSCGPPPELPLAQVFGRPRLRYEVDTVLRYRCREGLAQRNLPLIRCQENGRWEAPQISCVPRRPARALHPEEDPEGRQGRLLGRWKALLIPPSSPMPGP
# Procedure: A ForteBio OctetRed384 instrument was used to study the binding kinetics of each peptide to recombinant human brevican (re-suspended in PBS and 0.1 mM EDTA, pH 6.8). The brevican protein was deglycosylated prior to experimental use in water+0.05% tween, PI, sialidase, 0-glycosidase, N-glycosidase in sodium acetate [200 mM], NaCl [250 mM], Tris-HCl [200 mM], pH 7.5.) in the presence of protease inhibitor overnight at 4° C. (this entire composition will be referred to as ‘de-glycosylation buffer’). […] The final volume for all the solutions was 80 μl/well. Assays were performed at 30° C. in solid black 384-well plates (Geiger Bio-One). Prior to beginning, Ni-NTA biosensors were soaked for 10 min in working buffer. Before loading the protein onto each biosensor, a baseline was established in working buffer for 60 s. Deglycosylated brevican (50 μg/ml BΔg; His-tagged) was loaded on the surface of each biosensors for 180 s. […] Reference biosensors were also included in the plate as internal controls, where biosensors were exposed to the ‘de-glycosylation buffer’ lacking brevican protein during the loading step. A 60 s biosensor washing step was applied. Then, biosensors were exposed to the analyte (peptide) in working buffer (ranging between 0-10 μM BTP) for 300 s during the ‘association’ step. Finally, the biosensors were exposed to working buffer (without peptide) during the ‘dissociation’ step for 600 s. Binding affinity of each peptide was assessed through steady state analysis, where the response unit was plotted over peptide concentration. All data was plotted and curves were fitted using the non-linear ‘one-site specific binding’ fit, and the dissociation constant (KD) value was calculated using the GraphPad Prism software.
# Binding kinetics analyses were performed using the Octet RED platform (Forte Bio) to measure the binding affinity of BTP-7, 8 and 9 to purified recombinant BΔg protein.
# [2] = test system: BΔg-derived peptide (a.a. 535-548 of BΔg); assay: Circular dichroism of peptide mixed with BΔg-derived peptide; assay type: binding, human; conditions: CD spectrometry, control peptide
# Procedure: (§1) The BΔg peptide (or control BΔg(Scramble) peptide), BTP-7-FITC peptide, or a mixture of both (dissolved in Milli-Q H2O to a final concentration of 50 μM for each peptide) was loaded into a quartz cuvette (1 mm pathlength; Hellma Analytics Catalog #110-1-40). The cuvette was inserted into the Jasco J-815 circular dichroism spectropolarimeter, and the spectral scan measurement was conducted using the Spectrum Manager 2 software. The cuvette was rinsed with Milli-Q H2O in between each run. A blank (water) was run to establish the baseline for all samples. Scans were measured from 190 nm to 260 nm in a continuous mode (50-100 nm/min) at 20° C. To measure the BTP-7 structural change in the presence of either the BΔg (or control scramble) peptide, spectrum of the BΔg (or scramble) peptide alone was subtracted from the spectrum of the mixture, and then overlaid with the spectrum of BTP-7 alone for comparison. To investigate the structural changes in BTP-7 in a dose-dependent manner, 50 μM of BTP-7 peptide was loaded together with varying concentrations of either the BΔg (or control scramble) peptide. Similarly, the spectrum of each BΔg (or control scramble) peptide at the concentration was subtracted from the spectrum of the corresponding mixture, and then overlaid with the spectrum of BTP-7 alone for comparison.
# [3] = molecular target: T2, BΔg-derived peptide (a.a. 535-548 of BΔg) (Homo sapiens, UniProt Q96GW7); assay: as above; assay type: binding; conditions: CD spectrometry, 50 μM each peptide
# T2 construct: purchased GenScript USA Inc; host or cells: chemical synthesis
# Procedure: as §1
structure (smiles),measurement,setting,value
CC[C@@H](C)[C@@H](NC(=O)[C@H](N)[C@H](C)O)C(=O)N[C@H](CCCNC(=N)N)C(=O)N[C@H](CCCCN)C(=O)N[C@H](CC(C)C)C(=O)N[C@@H](C(=O)N[C@H](CCCNC(=N)N)C(=O)N[C@H](Cc1c[nH]cn1)C(N)=O)C(C)C [BTP-8] (H-[dT][dI][dR][dK][dL][dV][dR][dH]-NH2; N-terminus and C-terminus assumed),Kd,[1],1570 nM
same,peptide conformation in the presence of the scramble(BΔg) peptide,[2],unaffected
same,peptide conformation in the presence of the BΔg-derived peptide,[3],unaffected
